Measurements: patent US12606517B2, “Ibuprofen ester derivative and emulsion preparation thereof” (NANJING HERON PHARMACEUTICAL SCIENCE AND TECHNOLOGY CO., …, priority 2021, dated 2026)
Entries after “also recorded” stand apart in the source; their conditions may differ.

Key:
[1] = Metabolism of the compound in human plasma in vitro; assay type: in vitro ADME
Procedure: In the present application, the conversion characteristics of Compound N9 and its isomers were evaluated by establishing an in vitro human plasma metabolism model. The test scheme was as follows: • (1) stock solutions (40 mM) of Compounds N9, N9(S) and N9(R) in pure acetonitrile were formulated respectively, and a stock solution (40 mM) of ibuprofen in pure acetonitrile was formulated; • (2) 25 μL stock solution of ibuprofen was mixed with 1 mL of human plasma and vortexed for 30 s. […]

[2] = Pharmacokinetics of PEG400 solution versus emulsion injection in rats (Test Example 5); assay type: in vivo; settings: tail vein, equimolar dose
Procedure: The PEG solution (3250 μL) of the test compound was pipetted into a 10 mL EP tube, 1750 μL of normal saline was added into the tube with the dispensing gun, and the mixture was vortexed to be uniformly mixed to obtain a dosing solution with a concentration of 1.3 mg/mL and a volume of 5 mL.
Method for preparing the test solution of N9(S) (emulsion injection): an emulsion injection (215 μL) containing N9(S) compound (the content of which was 60 mg/mL) was added into a 15 mL EP tube and 10 mL of normal saline was added into the tube with a dispensing gun to obtain a dosing solution with a concentration of 1.3 mg/mL and […].

Remaining amount of a prodrug compound (%) ([1]; 37° C., 120 min): 45.0 ± 2.1%
SMILES: CCOC(=O)OC(CC)OC(=O)[C@@H](C)c1ccc(CC(C)C)cc1 (stereo partly drawn) [N9(S)]
hydrolysis / metabolic rate in plasma (in words) ([1]; comparison between isomers): faster hydrolysis rate in plasma than N9(R); also recorded: faster metabolic rate than the racemate N9
drug-time curve of dexibuprofen in vivo versus arginine solution of dexibuprofen (in words) ([2]; PEG400 solubilized solution): basically coincide
drug-time curve of dexibuprofen in vivo versus arginine solution of dexibuprofen (in words) ([2]; emulsion injection): basically coincide
